Data taken from patent publication US20250230193A1, “CYCLIC COMPOUND HAVING SELECTIVE KRAS INHIBITORY EFFECT ON HRAS AND NRAS” (CHUGAI SEIYAKU KABUSHIKI KAISHA, priority 2022, published 2025).

Key:
[1] = target: GDP-bound HRAS wild-type protein (Homo sapiens, UniProt P01112); test: Binding to HRAS by surface plasmon resonance (SPR), Single Cycle Kinetics; details: KD ratio HRAS/KRAS, SPR, GDP-bound wild-type proteins
[2] = target: GDP-bound NRAS wild-type protein (Homo sapiens, UniProt P01111); test: Binding to NRAS by surface plasmon resonance (SPR), Single Cycle Kinetics; details: KD ratio NRAS/KRAS, SPR, GDP-bound wild-type proteins
GDP-bound NRAS wild-type protein, sequence (P01111 whole entry): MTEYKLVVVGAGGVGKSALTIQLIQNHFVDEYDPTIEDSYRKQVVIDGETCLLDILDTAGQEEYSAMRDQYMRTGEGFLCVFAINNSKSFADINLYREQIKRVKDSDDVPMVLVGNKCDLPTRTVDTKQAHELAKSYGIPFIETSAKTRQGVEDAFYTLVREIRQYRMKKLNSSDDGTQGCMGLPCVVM

GDP-bound HRAS wild-type protein, sequence (P01112 whole entry): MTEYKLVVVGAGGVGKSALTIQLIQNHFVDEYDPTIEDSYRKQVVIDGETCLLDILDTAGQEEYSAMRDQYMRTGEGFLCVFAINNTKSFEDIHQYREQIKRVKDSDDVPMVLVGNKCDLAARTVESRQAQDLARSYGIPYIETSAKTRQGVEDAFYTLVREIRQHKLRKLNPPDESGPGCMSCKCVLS

## CC[C@H](C)[C@@H]1NC(=O)[C@@H]2CCCc3ccc(cc3)C[C@@H](C(=O)N(C)CC(=O)N[C@@H](CCc3ccc(C(F)(F)F)c(OC)c3)C(=O)N3CC4(CC4)C[C@H]3C(=O)NC3(CC(C)(C)C3)C(=O)N(C)[C@@H](C3CCCC3)C(=O)N(C)[C@H](C(=O)N(C)CC)CC(=O)N2C)N2CC/C=C\C[C@@H](C2=O)N(C)C(=O)CN(C)C1=O [PP3087]
[1]
  HRAS/KRAS (ratio of KD value with respect to GDP-bound HRAS wild-type protein to KD value with respect to KRAS): B (a compound having 3 or more and less than 10 is denoted as B)
[2]
  NRAS/KRAS (ratio of KD value with respect to GDP-bound NRAS wild-type protein to KD value with respect to KRAS): A (a compound having 10 or more and less than 20 is denoted as A)

## CCCO[C@@H]1C[C@H]2C(=O)NC3(CC(C)(C)C3)C(=O)N(C)[C@@H](C3CCCC3)C(=O)N(C)[C@H](C(=O)N(C)CC)CC(=O)N(C)[C@H]3CCCc4ccc(cc4)C[C@@H](C(=O)N(C)CC(=O)N[C@@H](CCc4ccc(C(F)(F)F)c(OC)c4)C(=O)N2C1)N1CC/C=C\C[C@@H](C1=O)N(C)C(=O)CN(C1CC1)C(=O)[C@H]([C@@H](C)CC)NC3=O [PP3088]
[1]
  HRAS/KRAS (ratio of KD value with respect to GDP-bound HRAS wild-type protein to KD value with respect to KRAS): B (a compound having 3 or more and less than 10 is denoted as B)
[2]
  NRAS/KRAS (ratio of KD value with respect to GDP-bound NRAS wild-type protein to KD value with respect to KRAS): B (a compound having 3 or more and less than 10 is denoted as B)

## CCCO[C@@H]1C[C@H]2C(=O)NC3(CC(C)(C)C3)C(=O)N(C)[C@@H](C3CCCC3)C(=O)N(C)[C@H](C(=O)N(C)CC)CC(=O)N(C)[C@H]3CCCc4ccc(cc4)C[C@@H](C(=O)N(C)CC(=O)N[C@@H](CCc4ccc(Cl)c(Cl)c4)C(=O)N2C1)N1CC/C=C\C[C@@H](C1=O)N(C)C(=O)CN(C)C(=O)[C@H]([C@@H](C)CC)NC3=O [PP3089]
[1]
  HRAS/KRAS (ratio of KD value with respect to GDP-bound HRAS wild-type protein to KD value with respect to KRAS): B (a compound having 3 or more and less than 10 is denoted as B)
[2]
  NRAS/KRAS (ratio of KD value with respect to GDP-bound NRAS wild-type protein to KD value with respect to KRAS): B (a compound having 3 or more and less than 10 is denoted as B)

## CCO[C@@H]1C[C@H]2C(=O)N(C)C3(CC(C)(C)C3)C(=O)N(C)[C@@H](C3CCCC3)C(=O)N(C)[C@H](C(=O)N(C)C)CC(=O)N(C)[C@H]3CCCCCCc4ccc(cc4)C[C@@H](C(=O)N(C)CC(=O)N[C@@H](CCc4ccc(C(F)(F)F)c(OC)c4)C(=O)N2C1)N1CC/C=C\C[C@@H](C1=O)N(C)C(=O)CN(C)C(=O)[C@H]([C@@H](C)CC)NC3=O [PP3090]
[1]
  HRAS/KRAS (ratio of KD value with respect to GDP-bound HRAS wild-type protein to KD value with respect to KRAS): B (a compound having 3 or more and less than 10 is denoted as B)
[2]
  NRAS/KRAS (ratio of KD value with respect to GDP-bound NRAS wild-type protein to KD value with respect to KRAS): A (a compound having 10 or more and less than 20 is denoted as A)

## CCO[C@@H]1C[C@H]2C(=O)N(C)C3(CC(C)(C)C3)C(=O)N(C)[C@@H](C3CCCC3)C(=O)N(C)[C@H](C(=O)N(C)C)CC(=O)N(C)[C@H]3CCCCCc4ccc(cc4)C[C@@H](C(=O)N(C)CC(=O)N[C@@H](CCc4ccc(C(F)(F)F)c(OC)c4)C(=O)N2C1)N1CC/C=C\C[C@@H](C1=O)N(C)C(=O)CN(C)C(=O)[C@H]([C@@H](C)CC)NC3=O [PP3091]
[1]
  HRAS/KRAS (ratio of KD value with respect to GDP-bound HRAS wild-type protein to KD value with respect to KRAS): B (a compound having 3 or more and less than 10 is denoted as B)
[2]
  NRAS/KRAS (ratio of KD value with respect to GDP-bound NRAS wild-type protein to KD value with respect to KRAS): A (a compound having 10 or more and less than 20 is denoted as A)

## CCCO[C@@H]1C[C@H]2C(=O)NC3(CC(C)(C)C3)C(=O)N(C)[C@@H](C3CCCC3)C(=O)N(C)[C@H](C(=O)N(C)C)CC(=O)N(C)[C@H]3CCCCc4ccc(cc4)C[C@@H](C(=O)N(C)CC(=O)N[C@@H](CCc4ccc(Cl)c(Cl)c4)C(=O)N2C1)N1CC/C=C\C[C@@H](C1=O)N(C)C(=O)CN(C)C(=O)[C@H]([C@@H](C)CC)NC3=O [PP3092]
[1]
  HRAS/KRAS (ratio of KD value with respect to GDP-bound HRAS wild-type protein to KD value with respect to KRAS): A (a compound having 10 or more and less than 20 is denoted as A)
[2]
  NRAS/KRAS (ratio of KD value with respect to GDP-bound NRAS wild-type protein to KD value with respect to KRAS): A (a compound having 10 or more and less than 20 is denoted as A)

## CCCO[C@@H]1C[C@H]2C(=O)NC3(CC(C)(C)C3)C(=O)N(C)[C@@H](C3CCCC3)C(=O)N(C)[C@H](C(=O)N3CCCC3)CC(=O)N(C)[C@H]3CCCCc4ccc(cc4)C[C@@H](C(=O)N(C)CC(=O)N[C@@H](CCc4ccc(C(F)(F)F)c(OC)c4)C(=O)N2C1)N1CC/C=C\C[C@@H](C1=O)N(C)C(=O)CN(C)C(=O)[C@H]([C@@H](C)CC)NC3=O [PP3094, (1S,7S,11R,13S,19S,22S,26S,29S,35S,37Z)-19-cyclopentyl-7-[2-[3-methoxy-4-(trifluoromethyl)phenyl]ethyl]-3,3′,3′,18,21,25,31,34-octamethyl-29-[(1S)-1-methylpropyl]-11-propoxy-22-(pyrrolidine-1-carbonyl)spiro[3,6,9,15,18,21,25,28,31,34,41-undecazapentacyclo[24.15.9.2^43,46.1^35,41.0^9,13]tripentaconta-37,43(52),44,46(51)-tetraene-16,1′-cyclobutane]-2,5,8,14,17,20,24,27,30,33,53-undecone]
[1]
  HRAS/KRAS (ratio of KD value with respect to GDP-bound HRAS wild-type protein to KD value with respect to KRAS): B (a compound having 3 or more and less than 10 is denoted as B)
[2]
  NRAS/KRAS (ratio of KD value with respect to GDP-bound NRAS wild-type protein to KD value with respect to KRAS): A (a compound having 10 or more and less than 20 is denoted as A)

## CCC[C@H]1C(=O)N[C@@H]([C@@H](C)CC)C(=O)N(C2CC2)CC(=O)N(C)[C@H]2C/C=C\CCN(C2=O)[C@@H](Cc2ccc(C(F)(F)F)cc2)C(=O)N(C)CC(=O)N[C@@H](CCc2ccc(C(F)(F)F)c(OC)c2)C(=O)N2C[C@H](OCC)C[C@H]2C(=O)N(C)C2(CCC2)C(=O)N(C)[C@@H](C2CCCC2)C(=O)N(C)[C@H](C(=O)N2CCCCC2)CC(=O)N1C [PP3095, (2S,8S,12R,14S,20S,23S,27S,30S,36S,38Z)-20-cyclopentyl-32-cyclopropyl-12-ethoxy-8-[2-[3-methoxy-4-(trifluoromethyl)phenyl]ethyl]-4,16,19,22,26,35-hexamethyl-30-[(1S)-1-methylpropyl]-23-(piperidine-1-carbonyl)-27-propyl-2-[[4-(trifluoromethyl)phenyl]methyl]spiro[1,4,7,10,16,19,22,26,29,32,35-undecazatricyclo[34.5.1.0^10,14]dotetracont-38-ene-17,1′-cyclobutane]-3,6,9,15,18,21,25,28,31,34,42-undecone]
[1]
  HRAS/KRAS (ratio of KD value with respect to GDP-bound HRAS wild-type protein to KD value with respect to KRAS): A (a compound having 10 or more and less than 20 is denoted as A)
[2]
  NRAS/KRAS (ratio of KD value with respect to GDP-bound NRAS wild-type protein to KD value with respect to KRAS): A (a compound having 10 or more and less than 20 is denoted as A)

## CCC[C@H]1C(=O)N[C@@H]([C@@H](C)CC)C(=O)N(C2CC2)CC(=O)N(C)[C@H]2C/C=C\CCN(C2=O)[C@@H](Cc2ccc(C(F)(F)F)cc2)C(=O)N(C)CC(=O)N[C@@H](CCc2ccc(C(F)(F)F)c(OC)c2)C(=O)N2C[C@H](OCC)C[C@H]2C(=O)N(C)C2(CCC2)C(=O)N(C)[C@@H](C2CCCC2)C(=O)N(C)[C@H](C(=O)N2CCCC2)CC(=O)N1C [PP3097]
[1]
  HRAS/KRAS (ratio of KD value with respect to GDP-bound HRAS wild-type protein to KD value with respect to KRAS): A (a compound having 10 or more and less than 20 is denoted as A)
[2]
  NRAS/KRAS (ratio of KD value with respect to GDP-bound NRAS wild-type protein to KD value with respect to KRAS): A (a compound having 10 or more and less than 20 is denoted as A)

## CCC[C@H]1C(=O)N[C@@H]([C@@H](C)CC)C(=O)N(C2CC2)CC(=O)N(C)[C@H]2C/C=C\CCN(C2=O)[C@@H](Cc2ccc(C)cc2)C(=O)N(C)CC(=O)N[C@@H](CCc2ccc(C(F)(F)F)c(OC)c2)C(=O)N2C[C@H](OCC)C[C@H]2C(=O)N(C)C2(CCC2)C(=O)N(C)[C@@H](C2CCCC2)C(=O)N(C)[C@H](C(=O)N2CCCC2)CC(=O)N1C [PP3098, (2S,8S,12R,14S,20S,23S,27S,30S,36S,38Z)-20-cyclopentyl-32-cyclopropyl-12-ethoxy-8-[2-[3-methoxy-4-(trifluoromethyl)phenyl]ethyl]-4,16,19,22,26,35-hexamethyl-30-[(1S)-1-methylpropyl]-27-propyl-2-(p-tolylmethyl)-23-(pyrrolidine-1-carbonyl)spiro[1,4,7,10,16,19,22,26,29,32,35-undecazatricyclo[34.5.1.0^10,14]dotetracont-38-ene-17,1′-cyclobutane]-3,6,9,15,18,21,25,28,31,34,42-undecone]
[1]
  HRAS/KRAS (ratio of KD value with respect to GDP-bound HRAS wild-type protein to KD value with respect to KRAS): A (a compound having 10 or more and less than 20 is denoted as A)
[2]
  NRAS/KRAS (ratio of KD value with respect to GDP-bound NRAS wild-type protein to KD value with respect to KRAS): A (a compound having 10 or more and less than 20 is denoted as A)

## CCC[C@H]1C(=O)N[C@@H]([C@@H](C)CC)C(=O)N2CCC[C@H]2C(=O)N(C)[C@H]2C/C=C\CCN(C2=O)[C@@H](Cc2ccc(C(F)(F)F)cc2)C(=O)N(C)CC(=O)N[C@@H](CCc2ccc(C(F)(F)F)c(OC)c2)C(=O)N2C[C@H](OCC)C[C@H]2C(=O)N(C)C2(CCC2)C(=O)N(C)[C@@H](C2CCCC2)C(=O)N(C)[C@H](C(=O)N2CCCCC2)CC(=O)N1C [PP3099]
[1]
  HRAS/KRAS (ratio of KD value with respect to GDP-bound HRAS wild-type protein to KD value with respect to KRAS): A (a compound having 10 or more and less than 20 is denoted as A)
[2]
  NRAS/KRAS (ratio of KD value with respect to GDP-bound NRAS wild-type protein to KD value with respect to KRAS): A (a compound having 10 or more and less than 20 is denoted as A)

## CCC[C@H]1C(=O)N[C@@H]([C@@H](C)CC)C(=O)N2CCC[C@H]2C(=O)N(C)[C@H]2C/C=C\CCN(C2=O)[C@@H](Cc2ccc(C)cc2)C(=O)N(C)CC(=O)N[C@@H](CCc2ccc(C(F)(F)F)c(OC)c2)C(=O)N2C[C@H](OCC)C[C@H]2C(=O)N(C)C2(CCC2)C(=O)N(C)[C@@H](C2CCCC2)C(=O)N(C)[C@H](C(=O)N2CCCCC2)CC(=O)N1C [PP3100, (1S,4S,10S,13S,17S,20S,26S,28R,32S,38S,42Z)-20-cyclopentyl-28-ethoxy-32-[2-[3-methoxy-4-(trifluoromethyl)phenyl]ethyl]-2,14,18,21,24,36-hexamethyl-10-[(1S)-1-methylpropyl]-17-(piperidine-1-carbonyl)-13-propyl-38-(p-tolylmethyl)spiro[2,8,11,14,18,21,24,30,33,36,39-undecazatetracyclo[37.5.1.0^4,8.0^26,30]pentatetracont-42-ene-23,1′-cyclobutane]-3,9,12,15,19,22,25,31,34,37,45-undecone]
[1]
  HRAS/KRAS (ratio of KD value with respect to GDP-bound HRAS wild-type protein to KD value with respect to KRAS): B (a compound having 3 or more and less than 10 is denoted as B)
[2]
  NRAS/KRAS (ratio of KD value with respect to GDP-bound NRAS wild-type protein to KD value with respect to KRAS): A (a compound having 10 or more and less than 20 is denoted as A)
